Source: ChEMBL document CHEMBL5360558, “Molecular design, synthesis and anticancer activity of new thiopyrano[2,3-d]thiazoles based on 5-hydroxy-1,4-naphthoquinone (juglone)” (Eur J Med Chem, 2023)

How the values were obtained:
HCT-116 = assay: Cytotoxicity against human HCT-116 cells assessed as cell growth inhibition incubated for 72 hrs by MTT assay; format: functional, cell-based; conditions: HCT-116, 72 h
K562 = assay: Cytotoxicity against human K562 cells assessed as cell growth inhibition incubated for 72 hrs by MTT assay; format: functional, cell-based; conditions: K562, 72 h
[1] = Cytotoxicity against human HCT116-p53-null cells assessed as cell growth inhibition incubated for 72 hrs by MTT assay; format: functional, cell-based
[2] = Cytotoxicity against mouse NIH3T3 cells assessed as cell growth inhibition incubated for 72 hrs by MTT assay; format: toxicity, cell-based
[3] = Cytotoxicity against human HaCaT cells assessed as cell growth inhibition incubated for 72 hrs by MTT assay; format: toxicity, cell-based; conditions: HaCaT cells
MCF7 = assay: Cytotoxicity against human MCF7 cells assessed as cell growth inhibition incubated for 72 hrs by MTT assay; format: functional, cell-based; conditions: MCF7, 72 h
Salmon testes DNA = assay: Displacement of methyl green from salmon sperm DNA assessed as DNA intercalation at 10 uM incubated for 24 hrs by fluorescence plate reader method relative to control; format: nucleic-acid assay; conditions: Salmo salar
[4] = Cytotoxicity against mouse J774.2 cells assessed as cell growth inhibition incubated for 72 hrs by MTT assay; format: toxicity, cell-based
KB 3-1 = assay: Cytotoxicity against human KB 3-1 cells assessed as cell growth inhibition incubated for 72 hrs by MTT assay; format: functional, cell-based; conditions: KB 3-1, 72 h
BT-549 = assay: Anticancer activity against human BT-549 cells assessed as cell growth at 10 uM incubated for 48 hrs by sulforhodamine B assay; format: functional; conditions: read-out: Activity
SF-539 = assay: Anticancer activity against human SF-539 cells assessed as cell growth at 10 uM incubated for 48 hrs by sulforhodamine B assay; format: functional; conditions: read-out: Activity
CAKI-1 = assay: Anticancer activity against human CAKI-1 cells assessed as cell growth at 10 uM incubated for 48 hrs by sulforhodamine B assay; format: functional; conditions: read-out: Activity
UO-31 = assay: Anticancer activity against human UO-31 cells assessed as cell growth at 10 uM incubated for 48 hrs by sulforhodamine B assay; format: functional; conditions: read-out: Activity
SR = assay: Anticancer activity against human SR cells assessed as cell growth at 10 uM incubated for 48 hrs by sulforhodamine B assay; format: functional; conditions: read-out: Activity
[5] = GSH reactivity of compound at pH 7.4 phosphate buffer assessed as GSH-adduct formation at 1 mM incubated for 1 hr by spectrophotometric analysis; format: physicochemical; conditions: pH 7.4, 1 h, 1000 µM
[6] = GSH reactivity of compound at pH 7.4 phosphate buffer assessed as GSH-adduct formation at 1 mM incubated for 1 hr in presence of sodium borohydride by spectrophotometric analysis; format: physicochemical; conditions: pH 7.4, 1 h, 1000 µM
SN12C = assay: Anticancer activity against human SN12C cells assessed as cell growth at 10 uM incubated for 48 hrs by sulforhodamine B assay; format: functional; conditions: read-out: Activity
NCI-H322M = assay: Anticancer activity against human NCI-H322M cells assessed as cell growth at 10 uM incubated for 48 hrs by sulforhodamine B assay; format: functional; conditions: read-out: Activity
SF-295 = assay: Anticancer activity against human SF-295 cells assessed as cell growth at 10 uM incubated for 48 hrs by sulforhodamine B assay; format: functional; conditions: read-out: Activity
A498 = assay: Anticancer activity against human A498 cells assessed as cell growth at 10 uM incubated for 48 hrs by sulforhodamine B assay; format: functional; conditions: read-out: Activity
RXF 393 = assay: Anticancer activity against human RXF 393 cells assessed as cell growth at 10 uM incubated for 48 hrs by sulforhodamine B assay; format: functional; conditions: read-out: Activity
OVCAR-5 = assay: Anticancer activity against human OVCAR-5 cells assessed as cell growth at 10 uM incubated for 48 hrs by sulforhodamine B assay; format: functional; conditions: read-out: Activity
SK-MEL-28 = assay: Anticancer activity against human SK-MEL-28 cells assessed as cell growth at 10 uM incubated for 48 hrs by sulforhodamine B assay; format: functional; conditions: read-out: Activity
UACC-257 = assay: Anticancer activity against human UACC-257 cells assessed as cell growth at 10 uM incubated for 48 hrs by sulforhodamine B assay; format: functional; conditions: read-out: Activity
M14 = assay: Anticancer activity against human M14 cells assessed as cell growth at 10 uM incubated for 48 hrs by sulforhodamine B assay; format: functional; conditions: read-out: Activity
Malme-3M = assay: Anticancer activity against human Malme-3M cells assessed as cell growth at 10 uM incubated for 48 hrs by sulforhodamine B assay; format: functional; conditions: read-out: Activity
SK-MEL-5 = assay: Anticancer activity against human SK-MEL-5 cells assessed as cell growth at 10 uM incubated for 48 hrs by sulforhodamine B assay; format: functional; conditions: read-out: Activity
HOP-62 = assay: Anticancer activity against human HOP-62 cells assessed as cell growth at 10 uM incubated for 48 hrs by sulforhodamine B assay; format: functional; conditions: read-out: Activity
MDA-MB-435 = assay: Anticancer activity against human MDA-MB-435 cells assessed as cell growth at 10 uM incubated for 48 hrs by sulforhodamine B assay; format: functional; conditions: read-out: Activity
SNB-19 = assay: Anticancer activity against human SNB-19 cells assessed as cell growth at 10 uM incubated for 48 hrs by sulforhodamine B assay; format: functional; conditions: read-out: Activity
OVCAR-8 = assay: Anticancer activity against human OVCAR-8 cells assessed as cell growth at 10 uM incubated for 48 hrs by sulforhodamine B assay; format: functional; conditions: read-out: Activity
HCT-15 = assay: Anticancer activity against human HCT-15 cells assessed as cell growth at 10 uM incubated for 48 hrs by sulforhodamine B assay; format: functional; conditions: read-out: Activity
HCC 2998 = assay: Anticancer activity against human HCC 2998 cells assessed as cell growth at 10 uM incubated for 48 hrs by sulforhodamine B assay; format: functional; conditions: read-out: Activity

## O=C1C2=C(C(=O)c3c(O)cccc31)C(c1ccc(Br)cc1)c1sc(=O)[nH]c1S2 (centres undefined)
HCT-116
  IC50: 4.7 µM
K562
  IC50: 6.31 µM
[1]
  IC50: 3.82 µM
[2]
  IC50 at 72 h: 30.4 µM
[3]
  IC50 at 72 h: > 50 µM
MCF7
  IC50: 31.2 µM
Salmon testes DNA
  Activity: 29.5%
[4]
  IC50 at 72 h: 2.03 µM
KB 3-1
  IC50: 2.74 µM

## O=C1C2=C(C(=O)c3c(O)cccc31)C(c1ccc(Cl)cc1)c1sc(=O)[nH]c1S2 (centres undefined)
BT-549
  growth at 10 µM: 39.5%
HCT-116
  IC50: 4.12 µM
SF-539
  growth at 10 µM: 35.1%
K562
  IC50: 19.2 µM
[1]
  IC50: 3.1 µM
[2]
  IC50 at 72 h: 46.6 µM
CAKI-1
  growth at 10 µM: 36.7%
UO-31
  growth at 10 µM: 39.8%
[3]
  IC50 at 72 h: > 50 µM
MCF7
  IC50: 7.5 µM
SR
  growth at 10 µM: 38.6%
Salmon testes DNA
  Activity: 29.5%
[4]
  IC50 at 72 h: 5.27 µM
KB 3-1
  IC50: 3.33 µM

## O=C1C2=C(C(=O)c3c(O)cccc31)C(c1cc(Cl)ccc1O)c1sc(=O)[nH]c1S2 (centres undefined)
HCT-116
  IC50: 0.75 µM
K562
  IC50: 11.8 µM
[1]
  IC50: 3.86 µM
[2]
  IC50 at 72 h: 37 µM
[3]
  IC50 at 72 h: > 50 µM
MCF7
  IC50: 9.34 µM
Salmon testes DNA
  Activity: 29.5%
[4]
  IC50 at 72 h: 5.25 µM
KB 3-1
  IC50: 3.64 µM

## O=C1C=CC(=O)c2c(O)cccc21 [JUGLONE]
HCT-116
  IC50: 31.6 µM
[5]
  Activity: Active
[6]
  Activity: Active
[4]
  IC50 at 72 h: 13.4 µM
KB 3-1
  IC50: 26.4 µM

## O=C1C2=C(C(=O)c3c(O)cccc31)C(CCc1ccccc1)c1sc(=O)[nH]c1S2 (centres undefined)
HCT-116
  IC50: > 50 µM
K562
  IC50: > 50 µM
[1]
  IC50: > 50 µM
MCF7
  IC50: > 50 µM
Salmon testes DNA
  Activity: 11.8%
[4]
  IC50 at 72 h: > 50 µM
KB 3-1
  IC50: > 50 µM

## O=C1C2=C(C(=O)c3c(O)cccc31)C(c1cccs1)c1sc(=O)[nH]c1S2 (centres undefined)
SN12C
  growth at 10 µM: -92.8%
NCI-H322M
  growth at 10 µM: -96.8%
SF-295
  growth at 10 µM: -93.5%
BT-549
  growth at 10 µM: -99.9%
HCT-116
  IC50: 5.13 µM
A498
  growth at 10 µM: -98.7%
RXF 393
  growth at 10 µM: -97.4%
SF-539
  growth at 10 µM: -99.5%
K562
  IC50: 21.5 µM
OVCAR-5
  growth at 10 µM: -93%
[1]
  IC50: 5.36 µM
[2]
  IC50 at 72 h: 39.1 µM
SK-MEL-28
  growth at 10 µM: -97.2%
UACC-257
  growth at 10 µM: -93.1%
M14
  growth at 10 µM: -96.7%
UO-31
  growth at 10 µM: -92.9%
Malme-3M
  growth at 10 µM: -99.4%
SK-MEL-5
  growth at 10 µM: -96.9%
HOP-62
  growth at 10 µM: -94.3%
MDA-MB-435
  growth at 10 µM: -90.2%
MCF7
  IC50: 24.1 µM
SNB-19
  growth at 10 µM: -99.5%
OVCAR-8
  growth at 10 µM: -94.6%
HCT-15
  growth at 10 µM: -91.4%
Salmon testes DNA
  Activity: 66.4%
[4]
  IC50 at 72 h: 6.81 µM
KB 3-1
  IC50: 4.53 µM
HCC 2998
  growth at 10 µM: -96.8%

## O=C1NC(=S)/C(=C/c2ccco2)S1
[5]
  Activity: Active
[6]
  Activity: Active
